The record followed here is publication PMC4212957, “The serodominant secreted effector protein of Salmonella, SseB, is a strong CD4 antigen containing an immunodominant epitope presented by diverse HLA class II alleles” (Immunology, 2014).

The subject of one test is PBMCs. Nature of the test: Human IFN-γ ELISpot. Format: cell-based. To be noted: 50 μg/ml peptide, 2 × 10^5 PBMCs, 24 hr; both cohorts; positive if > 2 SD above no-peptide/protein control. As for the experimental part: CD4 T cell responses to SseB were analysed in peripheral blood mononuclear cell (PBMC) samples from healthy control donors with no reported clinical history of Salmonella infection and from donors who had been experimentally challenged with S. Typhi 12 months previously as described elsewhere.[28] Healthy control blood samples were collected with informed consent, under the approval of Ethics REC reference number 08/H0707/173. The S. Typhi challenge participants were recruited by the Oxford Vaccine Group, University of Oxford and the study was performed at the Centre for Clinical Vaccinology and Tropical Medicine, Oxford. Ethics approval was obtained from the NRES Committee South Central – Oxford A (11/SC/0302). Written, informed consent was provided by all participants. A pre-determined bacterial dose (10^4 colony-forming units) of challenge agent (Quailes strain) was delivered by oral ingestion suspended in a sodium bicarbonate solution.[28] Study exclusion criteria included previous typhoid vaccination, residence in a typhoid endemic country for over 6 months and known diagnosis of a probably or confirmed typhoid infection. Blood samples were collected and PBMCs were purified by Lymphoprep density gradient separation.
Human IFN-γ ELISpot assays were run using reagents from Mabtech (Stockholm, Sweden). Briefly, 2 × 10^5 thawed PBMCs were incubated in pre-coated human IFN-γ ELISpot plates, in triplicate, with 50 μg/ml of SseB peptide or recombinant protein (25 μg/ml) in RPMI-1640 medium containing 2 mM L-glutamine, 50 U/ml penicillin G, 50 μg/ml streptomycin sulphate and 10% fetal calf serum. […] Developed plates were left to dry before spot counting using an AID ELISpot reader (Autoimmun Diagnostika GMBH, Straßberg, Germany). […] To better define HLA restriction, human donor ELISpot responses were also analysed in the presence of HLA class II blocking monoclonal antibodies at a final concentration of 25 μg/ml: L243 (anti-HLA-DRα), SPVL-3 (anti-HLA-DQ), B7/21 (anti-HLA-DP) and control mouse IgG. […]

In a further test the target is HLA-DRB1*07:01 (Homo sapiens, UniProt P01903+P01911, A100R/A102G/A103Q/D57E/D86V/E43K/F76Y/K127E/L162R/M171V/P40G/Q125H/Q99D/R33Q/R42Y/R54Q/S133A/S66F/T210M/V115G/Y107V/Y59L/Y89S). As to conditions: competitive ELISA; ratio IC50 of peptide / IC50 of reference peptide HA 306–318; lower = higher affinity; ratio 20 or less high, 20–100 moderate; three independent experiments. Background: In an ELISA, binding on a coated surface is turned into a signal by an enzyme label.

The target of the next test is T1, HLA-DRB1*09:01 (Homo sapiens, UniProt P01903+P01911, A100R/A103E/D57H/D86V/F55Y/F60I/F76Y/I96F/K127E/L162R/M171V/P40D/Q125H/Q99R/R33Q/R42F/S133A/S66N/T210M/V115G/W38K/Y107V/Y59G/Y89S).
T1 construct: HLA-DR heterodimers were purified from homozygous Epstein–Barr virus B-lymphoblastoid cell lines; host or cells: homozygous EBV B-lymphoblastoid cell line
The test is described as follows: Peptide/HLA-DR binding, competitive ELISA. As to conditions: ratio IC50 of peptide / IC50 of reference peptide CTP 427–441, lower = higher affinity, ratio 20 or less high, 20–100 moderate, three independent experiments. A digest of the protocol: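 HLA-DR heterodimers, affinity-purified with L243 from homozygous EBV B-lymphoblastoid lines, were tested in competitive ELISA against biotinylated reference peptides. The IC50 is the peptide concentration inhibiting 50% of labelled-peptide binding, expressed as relative affinity to the unlabelled reference peptide.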

The target of the next test is HLA-DRB1*01:01 (Homo sapiens, UniProt P01903+P01911, A100R/D57E/F55L/F60I/F76Y/I96L/L162R/M171V/P40L/Q125E/R42F/V115G/Y59C). To be noted: competitive ELISA; ratio IC50 of peptide / IC50 of reference peptide HA 306–318; lower = higher affinity; ratio 20 or less high, 20–100 moderate; three independent experiments.

For “2: SseB overlapping library peptide, residues 11–30 (QNPIVFKNSFGVSNADTGSQ) [Peptide 2]”, in the test on PBMCs, the “human CD4 T-cell IFN-γ ELISpot response to peptide” value was “largest and most common peptide responses”. For the same substance, the “Relative binding affinity of peptide to HLA-DR molecules DRB1*0701” value with HLA-DRB1*07:01 is 14. For the same substance, the “Relative binding affinity of peptide to HLA-DR molecules DRB1*0901” value with HLA-DRB1*09:01 amounted to 10. The “Relative binding affinity of peptide to HLA-DR molecules DRB1*0101” value with HLA-DRB1*01:01 is given as 300.

With “11: SseB overlapping library peptide, residues 101–120 (EDVIKYMRDNGILIDGMTID) [Peptide 11]”, the “human CD4 T-cell IFN-γ ELISpot response to peptide” value in the test with PBMCs was “largest and most common peptide responses”. In addition, in the test with HLA-DRB1*07:01, the “Relative binding affinity of peptide to HLA-DR molecules DRB1*0701” value is reported as 2. Moreover, the “Relative binding affinity of peptide to HLA-DR molecules DRB1*0901” value with HLA-DRB1*09:01 came to 34. Also, the “Relative binding affinity of peptide to HLA-DR molecules DRB1*0101” value with HLA-DRB1*01:01 worked out at 61.

On to AVLTQLTGLISKWGEISSMIAQKTYS [Peptide 18], for which the “human CD4 T-cell IFN-γ ELISpot response to peptide” value with PBMCs was “less frequent among the epitopes recognized”. For the same substance, the “Relative binding affinity of peptide to HLA-DR molecules DRB1*0701” value on HLA-DRB1*07:01 is listed as 12. In addition, at HLA-DRB1*09:01, the “Relative binding affinity of peptide to HLA-DR molecules DRB1*0901” value turned out to be 21. The “Relative binding affinity of peptide to HLA-DR molecules DRB1*0101” value at HLA-DRB1*01:01 came to 2.
